Reference: paper PMC5995442, “Drug discovery with an RBM20 dependent titin splice reporter identifies cardenolides as lead structures to improve cardiac filling” (PLoS ONE, 2018)
Entries after “also recorded” stand apart in the source; their conditions may differ. Where two headings read alike, the source gives them in different places. Residues, ends and D or L forms follow the SMILES beside them. *: point of attachment. Cbz = O=C(OCc1ccccc1)*

What was measured:
[1] = test system: RBM20 dependent titin PEVK4-13 splicing reporter; assay: Dual luciferase splicing reporter assay (DLR assay), RBM20 co-transfected; type: cell-based, human; conditions: for IC50: Homo sapiens
Text: The objective of our study was to identify and evaluate small molecules with the potential to modulate alternative splicing via an unbiased chemical high-throughput screening approach. Using transient transfection of a dual luciferase splicing reporter assay (DLR-assay) in HEK293.EBNA cells and a RBM20 expression construct, we investigated >34.000 substances for their effect on alternative exon exclusion from our RBM20 dependent titin PEVK4-13 splicing reporter. For the primary screen (pilot screen), each compound was tested at 10 μM (single point) and compared to an untreated control. Positive hits leading to differential exon usage (exceeding three standard deviations) were picked for independent validation in 9 serial 2-fold dilutions starting at 20 μM. Compounds that produced a concentration dependent effect were validated manually in the 96-well format and cytotoxicity was evaluated. To minimize the detection of false positives, we excluded compounds with structural homology to each luciferase’s natural substrate. To determine the EC50 of candidates we calculated dose response curves using a non-linear least-squares fitting routine available within the GNUPLOT package (accessible online: http://ic50.tk/index.html). […] Compounds that produced a concentration depend effect in the DLR-assay and altered the alternative transcript levels were regarded as validated alternative splicing modulators.
(§1) Cells transfected were at a confluency of 50-60%.
5000 HEK293.EBNA cells were seeded in clear bottom, white 384-well plates (Corning by Sigma-Aldrich Chemie GmbH, Munich, Germany) using an automated cell dispenser (Biotek, Bad Friedrichshall, Germany). 24 h after cell seeding the expression plasmids were delivered using a Freedom EVO® robotic workstation (TECAN, Maennedorf, Switzerland) equipped with a MultiChannel Arm™. Cells were transiently transfected with 45 ng plasmid DNA ([…] and 40 ng RBM20 or 24 ng of the negative control pcDNA3.1 ad 45 ng with bacterial expression plasmid pBSSK). Compounds were added to the plates the following day using the same robotic platform. Luciferase activity was determined using Dual-Glo® Luciferase Assay System (Promega GmbH, Mannheim, Germany) on an Infinite® M1000 Pro (TECAN, Maennedorf, Switzerland) plate reader around 60 hours post-transfection. Assay robustness was evaluated by calculation z’ scores using an online tool provided by the Screening Unit at FMP Berlin (http://www.screeningunit-fmp.net/tools/z-prime.php).

[2] = test system: HEK293.EBNA cells; assay: Cell viability, resazurin based staining (PrestoBlue); parameters: species or system human; conditions: for IC50: Homo sapiens, HEK293-EBNA, HEK293 cells, 60 h post-transfection, RBM20/titin reporter transfected, read-out: Viability IC50
Text: as §1

[3] = target: T1, RNA recognition motif (RRM) of RBM20 (Homo sapiens, UniProt Q5T481); assay: Surface plasmon resonance, immobilized RBM20-RRM; type: binding; conditions: SPR, increasing concentrations
T1 construct: The RRM domain of RBM20 was cloned into pGEX-6P-1 bacterial expression plasmid; GST (N); made in house; host or cells: E. coli Rosetta 2 (DE3)
T1 sequence (Q5T481 518-593 limits assumed): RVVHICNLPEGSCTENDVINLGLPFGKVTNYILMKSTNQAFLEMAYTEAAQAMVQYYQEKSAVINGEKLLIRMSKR
Procedure: The RRM domain of RBM20 was cloned into pGEX-6P-1 bacterial expression plasmid and expressed in E. coli Rosetta™ 2 (DE3) (Novagen by Merck KgaA, Darmstadt, Germany). After purification of the recombinant protein using glutathione-sepharose (Sigma-Aldrich Chemie GmbH, Munich, Germany) the purified fraction was dialyzed o/n in reaction buffer (20 mM HEPES pH7, 200 mM NaCl, 1 mM MgCl2, 10% glycerol). The surface plasmon resonance study (SPR) was performed on a Biacore T100 (GE Healthcare Europe GmbH, Freiburg, Germany) using amine coupling. Chip surface was activated with 0.2 M EDC/0.4 M NHS. 30 μg of human serum albumin (HSA) (positive control) or RBM20-RRM were linked to the activated chip surface at pH 4.5 in 10 mM sodium acetate.

[4] = target: human serum albumin (HSA) (Homo sapiens, UniProt P02768); assay: Surface plasmon resonance, immobilized human serum albumin (positive control); type: binding; conditions: SPR, increasing concentrations
[5] = test system: RBM20 protein levels; assay: RBM20 protein expression by immunoblot in co-transfected HEK293 cells; type: cell-based, human; conditions: proteasome inhibitor added to digoxin treated HEK293 cells
Procedure: For immunodetection, HEK293.EBNA samples were harvested by rinsing them of the cell culture substrate using PBS at 37°C and subsequently used for downstream processing or snap frozen in liquid nitrogen. For protein extraction samples were suspended in RIPA buffer (50 mM Tris pH 8.0, 150 mM NaCl, 1% NP-40, 0.25% sodium deoxycholate, 1.0 mM EDTA; 0.1% SDS) and lysed via sonication with 20 bursts at 70% energy using a VialTweeter (Hielscher Ultrasonics GmbH, Teltow, Germany). Protein concentration was estimated after 20’ precipitation of cell debris at 13,000xg for 20 min at 4°C using BCA assay (Life Technologies GmbH, Darmstadt, Germany [23225]). Samples were kept cool at any time. Lysates were separated by SDS-PAGE [14] and blotted on PVDF membranes. Blotted antigens were probed with mouse anti-c-myc 9E10 ([M5546], Sigma-Aldrich Chemie GmbH, Munich, Germany) tag antibody at 1:2000 and detected using a sheep anti-mouse IgG-HRP (GE Healthcare Europe GmbH, Freiburg, Germany [NA9310V]) conjugate 1:5000 follow by visualization with AceGlow™ (VWR PEQL37) on a FUSION FX7 CCD camera system (Vilber Lourmat Deutschland GmbH, Eberhardzell, Germany).

[6] = test system: titin minigene TTN Ex241-43 transcripts; assay: RT-PCR / RT-qPCR of transcripts from titin minigene TTN Ex241-43 (I96-98); type: cell-based, human; conditions: HEK293 transfected with RBM20 and minigene I96-98
Text: The objective of our study was to identify and evaluate small molecules with the potential to modulate alternative splicing via an unbiased chemical high-throughput screening approach. Using transient transfection of a dual luciferase splicing reporter assay (DLR-assay) in HEK293.EBNA cells and a RBM20 expression construct, we investigated >34.000 substances for their effect on alternative exon exclusion from our RBM20 dependent titin PEVK4-13 splicing reporter. For the primary screen (pilot screen), each compound was tested at 10 μM (single point) and compared to an untreated control. Positive hits leading to differential exon usage (exceeding three standard deviations) were picked for independent validation in 9 serial 2-fold dilutions starting at 20 μM. Compounds that produced a concentration dependent effect were validated manually in the 96-well format and cytotoxicity was evaluated. To minimize the detection of false positives, we excluded compounds with structural homology to each luciferase’s natural substrate. To determine the EC50 of candidates we calculated dose response curves using a non-linear least-squares fitting routine available within the GNUPLOT package (accessible online: http://ic50.tk/index.html). We evaluated the effect on splice activity on the RNA level by RT-qPCR of isoforms generated from a titin minigene containing TTN Ex241-43 (corresponding to TTN I-band exon I96-98) in the presence of the potential splice modulators. […]
Total RNA from HEK293.EBNA cells was extracted using RNeasy Micro Kit (Qiagen, Hilden, Germany) according to the manufacturer’s instructions. […] Quantitative RT-PCR was performed using SYBRGreen master mix (Applied Biosystems by Thermo Fisher Scientific Inc., USA) on a 7900 HT RT-cycler (Applied Biosystems by Thermo Fisher Scientific, Inc., USA). […] To quantification gene expression, we used the ΔΔCT method normalized to 18S or to the alternative transcripts generated from the splicing reporter. PSI values were calculated as ratio of unspliced and spliced reporter transcript. […]

[7] = target: Na+/K+ ATPase human erythrocytes; parameters: method as in PMID 11072868; conditions: cited from earlier work
[8] = test system: HEK293 cells gene expression; assay: Expression profiling of digitoxin treated HEK293 cells (GSE36058); type: cell-based, human; conditions: digitoxin treated HEK293, GEO dataset GSE36058
Procedure: Expression profiling data (Gene Expression Omnibus—GSE36058) was analyzed using AltAnalyze [16]—gene expression cut-off = 1.0.

[9] = FLuc/RLuc ratio, HEK293 cells, 96-well format, inset table of figure, read-out: Splicing IC50
[10] = HEK293, Table 1, read-out: IC50 Splicing HEK293 cells
[11] = dose response fit, head prints [μM], fits IC50 only

Sequence of human serum albumin (HSA) (P02768 25-609): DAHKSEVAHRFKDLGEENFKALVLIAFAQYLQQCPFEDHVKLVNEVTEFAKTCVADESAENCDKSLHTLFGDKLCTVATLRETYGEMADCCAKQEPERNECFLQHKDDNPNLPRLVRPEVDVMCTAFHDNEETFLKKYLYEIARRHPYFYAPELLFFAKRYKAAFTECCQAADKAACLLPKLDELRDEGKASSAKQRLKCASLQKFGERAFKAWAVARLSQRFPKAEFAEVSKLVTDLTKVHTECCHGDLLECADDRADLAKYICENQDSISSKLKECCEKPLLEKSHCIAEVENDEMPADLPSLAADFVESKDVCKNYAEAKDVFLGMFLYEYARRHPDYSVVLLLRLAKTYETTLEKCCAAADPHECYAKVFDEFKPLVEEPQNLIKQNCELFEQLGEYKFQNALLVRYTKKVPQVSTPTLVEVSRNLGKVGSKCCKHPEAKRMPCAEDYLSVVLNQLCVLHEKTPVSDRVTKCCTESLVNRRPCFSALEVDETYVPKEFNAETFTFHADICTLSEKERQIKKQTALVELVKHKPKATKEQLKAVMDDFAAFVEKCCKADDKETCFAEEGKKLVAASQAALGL

C[C@]12CC[C@H](O)C[C@H]1CC[C@@H]1[C@@H]2CC[C@]2(C)[C@@H](C3=CC(=O)OC3)CC[C@]12O [Digitoxigenin]
IC50 ([1]; HEK293, read-out: Splicing IC50): 0.417 ± 0.0995 µM | IC50 [2]: 0.468 ± 0.0269 µM | binding to RNA recognition motif (RRM) of RBM20 [3]: not the RNA recognition motif (RRM) of RBM20 | binding to human serum albumin (HSA) [4]: strongly bind

CC(=O)O[C@H]1CC[C@@]2(C)[C@H](CC[C@@H]3[C@@H]2CC[C@]2(C)[C@@H](C4=CC(=O)OC4)CC[C@]32O)C1 [Digitoxigenin-3-acetate, Digitoxigenin 3-acetate]
effect on RBM20-mediated titin splicing (in words) ([1]; DLR assay, HEK293): independently validated

CC(C)C[C@@H](C=O)NC(=O)[C@H](CC(C)C)NC(=O)[C@H](CC(C)C)NC(=O)OCc1ccccc1 [MG132] (Cbz-Leu-Leu-Leu-aldehyde)
rescue of RBM20 protein expression under digoxin [5]: did not rescue RBM20 protein expression

C[C@]12CC[C@H]3[C@@H](CC[C@]4(O)C[C@@H](O)CC[C@]34CO)[C@@]1(O)CC[C@@H]2C1=CC(=O)OC1 [Strophanthidol]
IC50 [1, 9]: 3.84 ± 0.443 µM | IC50 [2]: 3.07 ± 0.634 µM

Cymarol
effect on RBM20-mediated titin splicing (in words) ([1]; DLR assay, HEK293): independently validated | concentration at which effect on titin splicing starts ([1]; DLR assay, N = 4): < 100 nM

COc1ccc(-c2cc(=O)c3c(O)cc(O)c(-c4cc(-c5cc(=O)c6c(O)cc(O)cc6o5)ccc4OC)c3o2)cc1 [Isoginkgetin]
IC50 [1, 9]: 178 µM | dose at which an effect on RBM20 dependent splicing and general mRNA maturation was found ([1]; only at the highest toxic dose): 30 µM | IC50 [2]: 10.8 ± 13.1 µM | intron retention / mRNA maturation (in words) [6]: reduces alternative splicing and mRNA maturation; also recorded: affects mRNA maturation with increasing concentration

C[C@]12CC[C@H](O)C[C@H]1CC[C@@H]1[C@@H]2CC[C@]2(C)[C@@H](C3=CC(=O)OC3)[C@@H](O)C[C@]12O [Gitoxigenin]
effect on RBM20-mediated titin splicing (in words) ([1]; DLR assay, HEK293): independently validated

CO[C@H]1C[C@H](O[C@H]2CC[C@@]3(C)[C@H](CC[C@@H]4[C@@H]3CC[C@]3(C)[C@@H](C5=CC(=O)OC5)[C@@H](OC(C)=O)C[C@]43O)C2)O[C@@H](C)[C@@H]1O [Oleandrin]
IC50 ([1]; DLR assay HEK293, read-out: splicing IC50): 0.02 µM | IC50 [2]: 0.0305 ± 0.0012 µM

C[C@@H]1O[C@@H](O[C@H]2C[C@@H](O)[C@]3(CO)[C@H]4[C@H](O)C[C@]5(C)[C@@H](C6=CC(=O)OC6)CC[C@]5(O)[C@@H]4CC[C@]3(O)C2)[C@H](O)[C@H](O)[C@H]1O [Ouabain]
effect on RBM20-mediated titin splicing (in words) ([1]; DLR assay, HEK293): suppresses RBM20 mediated titin splicing | IC50 [1, 10]: 1.67 µM | IC50 [7]: 0.00056 µM

C[C@H]1O[C@@H](O[C@H]2[C@@H](O)C[C@H](O[C@H]3[C@@H](O)C[C@H](O[C@H]4CC[C@@]5(C)[C@H](CC[C@@H]6[C@@H]5CC[C@]5(C)[C@@H](C7=CC(=O)OC7)CC[C@]65O)C4)O[C@@H]3C)O[C@@H]2C)C[C@H](O)[C@@H]1O [Digitoxin]
proteins associated with RBM20 dependent splicing down regulated (of 39) [8]: 10 | proteins associated with RBM20 dependent splicing upregulated (of 39) [8]: 8 | effect on RBM20-mediated titin splicing (in words) ([1]; DLR assay, HEK293): efficiently inhibit RBM20 mediated splicing | IC50 [1, 10]: 0.056 µM | Splicing Hill Coeff. [1, 11]: 2.3582 ± 1.3110 | IC50 [7]: 0.00025 µM | IC50 [2]: 0.0663 ± 0.0055 µM | Viability Hill Coeff. [2, 11]: 2.0260 ± 0.2941 | Viability Max ([2]; fit maximum of relative viability, head prints [μM], fits IC50 only): 1.0033 ± 0.0211 | binding to RNA recognition motif (RRM) of RBM20 [3]: not the RNA recognition motif (RRM) of RBM20 | binding to human serum albumin (HSA) [4]: strongly bind

C[C@]12CCC(=O)C=C1CC[C@@H]1[C@@H]2[C@@H](O)C[C@@]2(C)[C@H]1CC[C@]2(O)C(=O)CO [Hydrocortisone]
effect on RBM20-mediated titin splicing (in words) ([1]; DLR assay, HEK293): did not interfere with splicing; also recorded: does not interfere with splicing activity; also recorded: do not interfere with RBM20 dependent splicing
